The results in this text go back to publication PMC5797143, “Epigenetic modulation of inflammation and synaptic plasticity promotes resilience against stress in mice” (Nature Communications, 2018).

Like-named read-outs stand apart in the source and are kept apart here.

Data set [1] has as its system MSN-enriched primary neurons and PBMCs. Description: MTT assay. The class given is cell-based, mouse. As for the experimental part: MTT and LDH release assays were conducted in MSN-enriched primary neurons and in PBMCs[64]. Cellular cytotoxicity was conducted in HepG2 cells using high content screening (HCS) protocols. Briefly, HepG2 cells were plated on 384-well tissue culture treated black walled clear bottomed polystyrene plates and treated with varying concentrations of Mal-gluc or DHCA. The cells were loaded with the relevant dye/antibody for each cell-health marker following incubation, including cell count, markers for nuclear size, DNA structure, cell membrane permeability, mitochondrial mass, mitochondrial membrane potential and cytochrome C release. The plates were then scanned using an automated fluorescent cellular imager ArrayScanr (Thermo Scientific Cellomics).

A further data set concerns the target T1, CYP2D6 (Homo sapiens, UniProt P10635).
T1 construct: from tissue; host or cells: human liver microsomes
Description: CYP inhibition in human liver microsomes. The class given is in vitro ADME. The note with it: read-out: CPY450 inhibition (IC50), CYP2D6. As for the experimental part:
(§1) CYP inhibition was tested in isolated microsomes for CYP2D6, CYP3A4, CYP1A2, CYP2C9, CYP2C19, CYP2C8, and CYP2B6[66]. Briefly, increasing concentrations of Mal-gluc or DHCA were incubated with human liver microsomes (HLM) in the presence of 2 mM NADPH in 100 mM potassium phosphate (pH 7.4) containing 5 mM magnesium chloride and a specific probe substrate for different CYPs: tacrine (CYP1A2), amodiaquine (CYP2C8), tolbutamide (CYP2C9), S-mephenytoin (CYP2C19), dextromethorphan (CYP2D6), midazolam/testosterone (CYP3A4/5), or bupropion (CYP2B6). CYP-specific inhibitors were included alongside the test compound as a positive control, including α-naphthoflavone (CYP1A2), quercetin (CYP2C8), ketoconazole (CYP3A4/5), quinidine (CYP2D6), sulfaphenazole (CYP2C9), and ticlopidine (CYP2C19, CYP2B6). After incubation at 37 °C, the reactions were terminated by addition of a methanol-containing internal standard (propranolol) for analytical quantification. The quenched samples were then incubated at 4 °C for 10 min and centrifuged at 4 °C for 10 min. The supernatant was removed and the probe substrate metabolite was analyzed by LC-MS/MS (Agilent Technologies Triple Quad LC-MS/MS).

The next data set deals with T2, CYP2C9 (Homo sapiens, UniProt P11712).
T2 construct: from tissue; host or cells: human liver microsomes
T2 sequence (P11712 whole entry): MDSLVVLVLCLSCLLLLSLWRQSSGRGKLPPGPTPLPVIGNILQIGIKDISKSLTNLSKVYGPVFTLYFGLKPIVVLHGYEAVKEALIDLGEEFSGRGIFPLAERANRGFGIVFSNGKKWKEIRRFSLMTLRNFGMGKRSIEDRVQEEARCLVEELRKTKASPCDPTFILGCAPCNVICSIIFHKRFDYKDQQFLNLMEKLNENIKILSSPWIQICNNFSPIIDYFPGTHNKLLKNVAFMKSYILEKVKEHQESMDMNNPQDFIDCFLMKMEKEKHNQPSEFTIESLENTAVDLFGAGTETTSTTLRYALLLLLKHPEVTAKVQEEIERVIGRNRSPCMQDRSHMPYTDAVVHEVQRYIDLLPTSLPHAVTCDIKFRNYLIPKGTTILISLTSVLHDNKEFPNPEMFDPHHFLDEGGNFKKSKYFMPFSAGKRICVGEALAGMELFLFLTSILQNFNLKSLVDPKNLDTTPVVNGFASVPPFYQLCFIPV
Put plainly: CYP inhibition in human liver microsomes. The class given is in vitro ADME. The conditions noted are these: read-out: CPY450 inhibition (IC50), CYP2C9. As for the experimental part: as §1

A further data set has as its target T3, CYP2B6 (Homo sapiens, UniProt P20813).
T3 construct: from tissue; host or cells: human liver microsomes
Put plainly: CYP inhibition in human liver microsomes. The class given is in vitro ADME. The note with it: read-out: CPY450 inhibition (IC50), CYP2B6. As for the experimental part: as §1
(Microsomes from liver hold many membrane-bound enzymes, among them those of drug oxidation.)

For the next data set, the target named is T4, CYP1A2 (Homo sapiens, UniProt P05177).
T4 construct: from tissue; host or cells: human liver microsomes
T4 sequence (P05177 whole entry): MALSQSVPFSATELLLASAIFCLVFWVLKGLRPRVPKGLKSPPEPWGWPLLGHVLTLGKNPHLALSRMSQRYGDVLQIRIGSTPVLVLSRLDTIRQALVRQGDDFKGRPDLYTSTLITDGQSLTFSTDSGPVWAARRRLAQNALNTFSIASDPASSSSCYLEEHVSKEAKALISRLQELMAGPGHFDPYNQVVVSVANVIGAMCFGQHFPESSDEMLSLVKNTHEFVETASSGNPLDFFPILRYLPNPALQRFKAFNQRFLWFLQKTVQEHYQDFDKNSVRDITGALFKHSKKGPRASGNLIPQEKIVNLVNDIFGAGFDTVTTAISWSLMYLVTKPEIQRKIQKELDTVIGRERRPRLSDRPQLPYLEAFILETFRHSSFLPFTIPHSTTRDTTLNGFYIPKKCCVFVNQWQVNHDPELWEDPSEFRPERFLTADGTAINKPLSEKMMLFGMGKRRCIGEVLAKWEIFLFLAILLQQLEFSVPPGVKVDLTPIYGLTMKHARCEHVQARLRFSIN
Put plainly: CYP inhibition in human liver microsomes. The class given is in vitro ADME. The note with it: read-out: CPY450 inhibition (IC50), CYP1A2. As for the experimental part: as §1

Another data set concerns the target CYP3A4 (Homo sapiens, UniProt P08684). Put plainly: CYP inhibition in human liver microsomes. The class given is in vitro ADME. The conditions noted are these: read-out: CPY450 inhibition (IC50), CYP3A4. As for the experimental part: as §1
The target in the next data set is T5, CYP2C19 (Homo sapiens, UniProt P33261).
T5 construct: from tissue; host or cells: human liver microsomes
Description: CYP inhibition in human liver microsomes. The class given is in vitro ADME. The conditions noted are these: read-out: CPY450 inhibition (IC50), CYP2C19. As for the experimental part:
as §1

The target of another data set is T6, CYP2C8 (Homo sapiens, UniProt P10632).
T6 construct: from tissue; host or cells: human liver microsomes
T6 sequence (P10632 whole entry): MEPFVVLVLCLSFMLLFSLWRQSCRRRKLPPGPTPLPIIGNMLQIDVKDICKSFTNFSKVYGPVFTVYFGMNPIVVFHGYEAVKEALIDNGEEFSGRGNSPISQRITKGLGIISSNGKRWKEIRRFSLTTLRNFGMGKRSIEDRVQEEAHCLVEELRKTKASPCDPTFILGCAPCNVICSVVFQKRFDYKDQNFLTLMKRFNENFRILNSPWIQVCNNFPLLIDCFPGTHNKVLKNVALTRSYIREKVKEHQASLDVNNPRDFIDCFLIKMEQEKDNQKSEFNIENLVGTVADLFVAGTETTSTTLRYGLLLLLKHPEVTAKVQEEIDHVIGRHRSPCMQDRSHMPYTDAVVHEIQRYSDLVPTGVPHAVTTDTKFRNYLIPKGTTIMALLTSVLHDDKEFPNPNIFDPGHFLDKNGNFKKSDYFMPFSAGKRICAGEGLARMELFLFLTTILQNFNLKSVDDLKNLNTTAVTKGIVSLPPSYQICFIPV
Put plainly: CYP inhibition in human liver microsomes. The class given is in vitro ADME. The note with it: read-out: CPY450 inhibition (IC50), CYP2C8. As for the experimental part: as §1

Data set [2] deals with T7, human Ether-à-go-go-related gene (hERG) (Homo sapiens, UniProt Q12809).
T7 construct: expressed in transfected cells; host or cells: CHO cells, stably transfected
T7 sequence (Q12809 whole entry): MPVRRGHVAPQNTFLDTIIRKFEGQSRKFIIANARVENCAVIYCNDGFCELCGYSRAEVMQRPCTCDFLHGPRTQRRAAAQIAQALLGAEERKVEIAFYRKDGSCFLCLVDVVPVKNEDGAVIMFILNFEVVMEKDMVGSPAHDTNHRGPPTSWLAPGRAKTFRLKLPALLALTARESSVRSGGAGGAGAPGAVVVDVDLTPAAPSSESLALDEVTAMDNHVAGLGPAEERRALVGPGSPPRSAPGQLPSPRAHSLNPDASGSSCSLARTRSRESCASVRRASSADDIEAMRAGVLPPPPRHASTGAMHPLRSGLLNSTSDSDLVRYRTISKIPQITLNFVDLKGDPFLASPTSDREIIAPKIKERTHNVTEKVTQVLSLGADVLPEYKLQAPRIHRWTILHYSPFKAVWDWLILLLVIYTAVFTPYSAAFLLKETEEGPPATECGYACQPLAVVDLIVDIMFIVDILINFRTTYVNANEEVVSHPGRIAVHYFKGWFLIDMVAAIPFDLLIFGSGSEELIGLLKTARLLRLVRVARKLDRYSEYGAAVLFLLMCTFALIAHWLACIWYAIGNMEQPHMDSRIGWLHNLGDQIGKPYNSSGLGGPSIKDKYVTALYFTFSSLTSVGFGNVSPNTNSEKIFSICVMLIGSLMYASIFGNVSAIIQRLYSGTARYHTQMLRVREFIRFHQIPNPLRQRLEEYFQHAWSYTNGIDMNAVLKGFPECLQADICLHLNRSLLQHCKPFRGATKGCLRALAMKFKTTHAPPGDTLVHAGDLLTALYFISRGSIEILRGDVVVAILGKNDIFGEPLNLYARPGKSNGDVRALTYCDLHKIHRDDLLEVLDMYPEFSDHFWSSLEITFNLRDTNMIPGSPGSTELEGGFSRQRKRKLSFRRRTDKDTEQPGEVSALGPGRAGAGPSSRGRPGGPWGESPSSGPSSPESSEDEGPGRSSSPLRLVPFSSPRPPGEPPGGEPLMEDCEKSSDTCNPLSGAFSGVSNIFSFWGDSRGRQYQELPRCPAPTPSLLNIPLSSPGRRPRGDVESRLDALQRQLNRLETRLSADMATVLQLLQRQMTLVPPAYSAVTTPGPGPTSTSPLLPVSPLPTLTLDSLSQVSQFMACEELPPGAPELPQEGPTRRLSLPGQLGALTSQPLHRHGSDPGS
Put plainly: In vitro cardiotoxicity, hERG inhibition (IonWorks HT, CHO cells). The class given is cell-based. The conditions noted are these: CHO cells stably transfected with hERG. As for the experimental part:
Cardiotoxicity was assessed using CHO cells stably transfected with the hERG using the IonWorks HT instrument (Molecular Devices Corporation), which automatically performs electrophysiology measurements in 48 single cells simultaneously in a specialized 384-well plate (PatchPlate)[42]. A single-cell suspension was added to the wells of a PatchPlate to form an electrical seal at the bottom and pre-compound currents were recorded. Various concentrations of Mal-gluc or DHCA were added to the cells in four replicates for 5 min and post-compound currents were then recorded. Post-compound currents are then expressed as a percentage of pre-compound currents and plotted against concentration for each compound and IC50 was calculated.
For orientation: The hERG channel carries a current that helps repolarise heart muscle cells.

Data set [3] in a line: In vivo safety: plasma ALP, AST, ALT, BUN. Details: species or system mouse. The conditions noted are these: 2 weeks, all doses tested. As for the experimental part:
We then initiated dose response and safety studies in mice to determine testing dosages and safety of DHCA and Mal-gluc. C57BL/6 mice were treated with either DHCA (doses ranging from 50 µg to 50 mg/kg-BW/day) or Mal-gluc (doses ranging from 50 ng to 5 mg/kg-BW/day) for 2 weeks to simulate long-term administration. Mice treated with DHCA were challenged with intraperitoneal (i.p.) injection of 0.4 mg/kg-BW LPS and plasma levels of IL-6 were measured 6 h post injection. […] Following common discovery-stage practices, we measured the plasma levels of alkaline phosphatase (ALP), aspartate aminotransferase (AST), and alanine aminotransferase (ALT) for liver function and blood urea nitrogen (BUN) for renal function.
Male C57BL/6 J mice (8-week-old) were placed on a polyphenol-free AIN-93M diet and treated with various doses of DHCA (vehicle, 50 µg, 500 µg, 5 mg, and 50 mg/kg-BW/day), delivered through their drinking water for two weeks. Animals were then sacrificed and plasma was collected for routine biochemistry panel analysis including ALP, ALT, and AST for liver function and blood urea nitrogen (BUN) content for kidney function. A separate group of mice was similarly treated and challenged with an i.p. injection of 0.4 mg/kg body weight LPS and plasma was collected 6 h post injection for IL-6 analysis. […]

Data set [4] addresses T8, 5-HT6 (serotonin receptor) (Homo sapiens, UniProt P50406).
T8 construct: purchased NIMH Psychoactive Drug Screening Program (PDSP)
Description: Radioligand binding assay. The conditions noted are these: 10 µM; HEK membrane fractions; quadruplicate. As for the experimental part: (§2) Radioligand binding assays were performed as previously described. Briefly, crude membrane fractions prepared from a stable HEK cell line expressing recombinant receptors were mixed with a radiolabeled specific ligand and 10 µM of competitor compound (DHCA, Mal-gluc, or non-specific ligand). The percentage of radioligand binding was subsequently measured.

The next data set deals with T9, M2 (muscarinic receptor) (Homo sapiens, UniProt P08172).
T9 construct: purchased NIMH Psychoactive Drug Screening Program (PDSP)
T9 sequence (P08172 whole entry): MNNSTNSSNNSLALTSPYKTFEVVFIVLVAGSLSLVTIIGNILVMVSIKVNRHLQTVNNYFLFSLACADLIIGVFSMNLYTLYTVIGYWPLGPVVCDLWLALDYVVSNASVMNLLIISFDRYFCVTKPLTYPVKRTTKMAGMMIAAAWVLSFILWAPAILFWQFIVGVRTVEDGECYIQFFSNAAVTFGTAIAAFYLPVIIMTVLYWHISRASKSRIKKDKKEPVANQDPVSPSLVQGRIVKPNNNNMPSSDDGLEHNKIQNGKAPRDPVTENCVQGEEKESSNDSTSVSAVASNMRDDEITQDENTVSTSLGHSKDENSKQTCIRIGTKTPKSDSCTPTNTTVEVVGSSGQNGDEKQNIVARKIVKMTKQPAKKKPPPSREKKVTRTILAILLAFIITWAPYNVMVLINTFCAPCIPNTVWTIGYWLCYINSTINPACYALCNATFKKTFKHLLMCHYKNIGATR
Description: Radioligand binding assay. The note with it: 10 µM; HEK membrane fractions; quadruplicate. As for the experimental part: as §2

The target in the next data set is T10, D3 (dopamine receptor) (Homo sapiens, UniProt P35462).
T10 construct: purchased NIMH Psychoactive Drug Screening Program (PDSP)
T10 sequence (P35462 whole entry): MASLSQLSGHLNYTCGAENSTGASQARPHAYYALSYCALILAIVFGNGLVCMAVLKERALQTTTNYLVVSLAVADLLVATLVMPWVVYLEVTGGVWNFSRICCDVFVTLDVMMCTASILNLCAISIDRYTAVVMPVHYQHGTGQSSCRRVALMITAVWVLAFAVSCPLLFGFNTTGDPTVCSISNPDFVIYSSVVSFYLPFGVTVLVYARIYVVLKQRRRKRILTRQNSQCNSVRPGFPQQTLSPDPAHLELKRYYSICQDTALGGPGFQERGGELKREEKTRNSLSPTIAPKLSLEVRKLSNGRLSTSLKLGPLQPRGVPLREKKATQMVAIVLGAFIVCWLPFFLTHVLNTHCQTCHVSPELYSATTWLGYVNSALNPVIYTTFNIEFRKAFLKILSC
Put plainly: Radioligand binding assay. The note with it: 10 µM; HEK membrane fractions; quadruplicate. As for the experimental part:
as §2

T1 sequence (P10635 whole entry): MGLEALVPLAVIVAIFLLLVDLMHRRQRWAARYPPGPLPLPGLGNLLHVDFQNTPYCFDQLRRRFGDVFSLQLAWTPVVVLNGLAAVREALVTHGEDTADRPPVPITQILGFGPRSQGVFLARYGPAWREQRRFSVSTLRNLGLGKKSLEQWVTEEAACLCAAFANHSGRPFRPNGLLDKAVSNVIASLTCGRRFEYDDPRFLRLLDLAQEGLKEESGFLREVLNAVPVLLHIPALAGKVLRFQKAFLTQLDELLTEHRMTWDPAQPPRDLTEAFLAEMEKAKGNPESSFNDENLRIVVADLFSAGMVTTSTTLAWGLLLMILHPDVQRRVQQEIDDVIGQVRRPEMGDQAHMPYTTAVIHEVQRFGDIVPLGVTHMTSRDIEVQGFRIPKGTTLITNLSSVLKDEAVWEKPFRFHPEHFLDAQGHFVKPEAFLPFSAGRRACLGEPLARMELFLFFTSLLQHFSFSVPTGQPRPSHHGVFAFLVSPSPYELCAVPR
CYP3A4, sequence (P08684 2-503): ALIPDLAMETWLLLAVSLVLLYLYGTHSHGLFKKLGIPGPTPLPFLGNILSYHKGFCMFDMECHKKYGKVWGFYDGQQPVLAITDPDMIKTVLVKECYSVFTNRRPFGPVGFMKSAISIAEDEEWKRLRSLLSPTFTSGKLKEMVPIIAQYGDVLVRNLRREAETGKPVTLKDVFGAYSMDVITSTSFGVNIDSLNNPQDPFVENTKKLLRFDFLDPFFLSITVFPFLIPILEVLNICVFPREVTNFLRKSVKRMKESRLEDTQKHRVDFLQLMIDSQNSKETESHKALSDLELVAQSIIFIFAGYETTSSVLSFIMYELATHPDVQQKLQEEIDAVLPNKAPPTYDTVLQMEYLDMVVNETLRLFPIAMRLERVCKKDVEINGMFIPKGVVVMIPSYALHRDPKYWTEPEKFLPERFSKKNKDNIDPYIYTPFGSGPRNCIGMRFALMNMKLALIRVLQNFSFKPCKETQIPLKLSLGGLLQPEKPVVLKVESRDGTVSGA
T8 sequence (P50406 whole entry): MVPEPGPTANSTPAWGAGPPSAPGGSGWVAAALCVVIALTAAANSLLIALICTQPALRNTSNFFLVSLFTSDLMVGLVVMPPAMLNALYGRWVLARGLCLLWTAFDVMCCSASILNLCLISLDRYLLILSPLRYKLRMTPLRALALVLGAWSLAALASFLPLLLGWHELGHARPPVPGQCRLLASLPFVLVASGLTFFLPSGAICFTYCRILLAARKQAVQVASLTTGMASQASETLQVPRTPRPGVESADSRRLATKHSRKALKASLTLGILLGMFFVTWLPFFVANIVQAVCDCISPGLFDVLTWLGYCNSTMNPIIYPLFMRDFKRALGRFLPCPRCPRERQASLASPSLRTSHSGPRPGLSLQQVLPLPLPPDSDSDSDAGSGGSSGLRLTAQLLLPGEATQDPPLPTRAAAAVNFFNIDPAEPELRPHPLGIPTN

`O=C(O)CCc1ccc(O)c(O)c1` [DHCA, 3(3,4-dihydroxy-phenyl) propionic acid]: the “MTT assay, % of vehicle control” value in [1] came to 100%. Further, the IC50 (in general, the concentration at which inhibition is half-maximal) is over 25 µM at CYP2D6; over 25 µM on CYP2C9; over 25 µM at CYP2B6; over 25 µM on CYP1A2; over 25 µM on CYP3A4 (human, pH 7.4, probe midazolam/testosterone); over 25 µM on CYP2C19. The concentration for half-maximal inhibition (IC50) (at CYP2C8; in data set [2]) was over 25 µM each time. Further, the “plasma ALP, AST, ALT (liver function) and BUN (renal function)” value in [3] is reported as “neither phytochemical induced significant changes in any of the indexes”. Moreover, the “Binding activity, 5-HT6 (percentage)” value in [4] worked out at 24.2%. The “Binding activity, M2 (percentage)” value at M2 (muscarinic receptor) was −12.2%. Moreover, on D3 (dopamine receptor), the “Binding activity, D3 (percentage)” value is −18.8%.

For `COc1cc(-c2[o+]c3cc(O)cc(O)c3cc2O[C@@H]2O[C@H](CO)[C@@H](O)[C@H](O)[C@H]2O)cc(OC)c1O` [Mal-gluc], the “MTT assay, % of vehicle control” value in data set [1] stood at 100%. Besides, the half-maximal inhibitory concentration (IC50) at CYP2D6, at CYP2C9, on CYP2B6, on CYP1A2, at CYP3A4 and at CYP2C19 was over 25 µM in each case. For the same compound, the IC50 (at CYP2C8; in data set [2]) was over 25 µM each time. The “plasma ALP, AST, ALT (liver function) and BUN (renal function)” value in data set [3] is “neither phytochemical induced significant changes in any of the indexes”. The “Binding activity, 5-HT6 (percentage)” value in [4] was −18.5%. Further, at M2 (muscarinic receptor), the “Binding activity, M2 (percentage)” value is given as 5.2%. Also, the “Binding activity, D3 (percentage)” value at D3 (dopamine receptor) was 7.2%.
